Experiments:
[1] = biological target: T1, PI3Kγ (purified recombinant p101/p110γ protein) (Homo sapiens, UniProt P48736); assay: PI3Kγ In Vitro Kinase Assay; format: biochemical; conditions: final ATP 20 μM, 25 μM PIP2, G protein β1/γ2 subunits, 20 minutes at room temperature
T1 construct: HA; made in house; host or cells: Spodoptera frugiperda Sf9 cells (baculovirus co-infection)
Method: Spodtera frugiperda cells, grown in ESF921 media, were co-infected with baculovirus expressing a glu-tagged p101 and baculovirus expressing an HA-tagged p110γ, at a 3:1 ratio of p101 baculovirus to p110γ baculovirus. Sf9 cells were grown to 1×10^7 total cells/mL in 10 L bioreactors and harvested 48-72 hours post infection. Samples of infected cells were then tested for expression of p101/p110γ PI3 kinase by immunoprecipitation and Western Blot analysis methods (see below).
To purify PI3Kγ, 4 volumes of room temperature hypotonic lysis buffer (1 mM MgCl2, 1 mM DTT, 5 mM EGTA, 1 mM Pefabloc, 0.5 μM aprotinin, 5 μM leupeptin, 2 μM pepstatin, 5 μM E64, pH 8) per gram of cell paste, was poured onto frozen cell pellets with stirring, then lysed in a nitrogen “bomb” at 400 psi (599HC T316, Parr Instrument Co, Moline, Ill.). NaCl was added to 150 mM, and sodium cholate was added to 1% and mixed for another 45 minutes. The lysates were clarified by centrifugation for 25 minutes at 14,000 rpm. The lysates were then loaded over anti-glu-linked Protein-G Sepaharose beads (Covance Research Products, Richmond, Calif.) using 20 mL resin/50 g cell paste. The column was washed with 15 volumes of wash buffer (1 mM DTT, 0.2 mM EGTA, 1 mM Pefabloc, 0.5 μM aprotinin, 5 μM leupeptin, 2 μM pepstatin, 5 μM E64, 150 mM NaCl, 1% sodium cholate, pH 8). PI3Kγ was eluted with 6 column volumes of wash buffer that contain 100 μg/mL of a peptide that competes for binding of the glu tag. The column fractions with the eluted protein (determined by taking OD280 readings) were collected and dialyzed in 0.2 mM EGTA, 1 mM DTT, 1 mM Pefabloc, 5 μM leupeptin, 0.5% sodium cholate, 150 mM NaCl, and 50% glycerol, pH 8. The fractions were stored at −80° C. until further use.
Spodtera frugiperda cells were coinfected with baculovirus expressing a glu-tagged G protein β1 and baculovirus expressing a G protein β2, at a 1:1 ratio of glu-tagged G protein β1 baculovirus to G protein β2 baculovirus. Sf9 cells are grown in 10 L bioreactors and harvested 48-72 hours post infection. Samples of infected cells were tested for G protein β1/β2 expression by Western Blot analysis, as described below. Cell lysates were homogenized and loaded onto a column of glu-tagged beads as in Biological Example 1 and competed off the column with a glu peptide and processed as described in Biological Example 1.
The inhibitory properties of the compounds in Table 1 were assayed in an in vitro PI3K assay. In a 96-well polypropylene plate, each well was spotted with 2 μL of 50 times the desired final concentration of compound in DMSO. Purified recombinant p101/p110γ protein (0.03 μg; ˜2.7 nM) and G protein β1/γ2 subunits (0.09 μg; ˜57.7 nM) for each reaction was combined in the assay buffer (30 mM HEPES, 100 mM NaCl, 1 mM EGTA, and 1 mM DTT). ATP and [γ-^32P-ATP] (0.09 μCi) were added to this mixture so that the final ATP concentration in the reaction was 20 μM. Lipid micelles were formed by sonicating phosphatidylinositol-4,5-diphosphate (PIP2), phosphatidylethanolamine (PE), and Na-cholate in the assay buffer for 10 minutes, adding MgCl2 and incubating on ice for 20 minutes, for final concentrations of 25 μM PIP2, 300 μM PE, 0.02% Na-cholate, and 10 mM MgCl2 in the reaction. The reactions were started by adding equal volumes lipid and enzyme mixture in a total volume of 50 μL, allowed to run for 20 minutes at room temperature, and stopped with 100 μL 75 mM H3PO4. The lipid product was transferred to a glass fiber filter plate and washed with 75 mM H3PO4 several times. The presence of radioactive lipid product (PIP3) was measured by adding Wallac Optiphase mix to each well and counting in a Wallac 1450 Trilux plate reader (PerkinElmer Life Sciences Inc., Boston, Mass. 02118). The IC50 for each compound tested is reported in μM in the Table 2: […]

CDK2/cyclin A = CDK2/cyclin A (Homo sapiens, UniProt P24941); assay: CDK2/cyclinA In Vitro Kinase Assay; format: biochemical; conditions: 10 μM of each compound; Histone H1 substrate; 0.02 mM ATP; activity as percentage of controls with DMSO alone, mean of duplicates
Method: The inhibitory properties of the compounds of Examples 19, 24, and 31 were assayed in an in vitro CDK2/cyclinA assay at 10 μM of each compound in DMSO. CDK2/cyclin A (5-20 mU diluted in 50 mM Hepes pH 7.5, 1 mM DTT, 0.02% Brij35, 100 mM NaCl) was assayed against Histone H1 in a final volume of 25.5 μl containing 50 mM Hepes pH7.5, 1 mM DTT, 0.02% Brij35, 100 mM NaCl, Histone H1 (1 mg/ml), 10 mM magnesium acetate and 0.02 mM [^33P-γ-ATP](500-1000 cpm/pmole) and incubated for 30 min at room temperature. Assays were stopped by addition of 5 μl of 0.5 M (3%) orthophosphoric acid and then harvested onto P81 Unifilter plates and washed with 50 mM orthophosphoric acid. The filter plates were then counted in a scintillation counter.
The results in Table 3 are expressed as percentage of controls with DMSO alone (mean of duplicates ±the standard deviation from the mean).

T1 sequence (P48736 whole entry, species assumed): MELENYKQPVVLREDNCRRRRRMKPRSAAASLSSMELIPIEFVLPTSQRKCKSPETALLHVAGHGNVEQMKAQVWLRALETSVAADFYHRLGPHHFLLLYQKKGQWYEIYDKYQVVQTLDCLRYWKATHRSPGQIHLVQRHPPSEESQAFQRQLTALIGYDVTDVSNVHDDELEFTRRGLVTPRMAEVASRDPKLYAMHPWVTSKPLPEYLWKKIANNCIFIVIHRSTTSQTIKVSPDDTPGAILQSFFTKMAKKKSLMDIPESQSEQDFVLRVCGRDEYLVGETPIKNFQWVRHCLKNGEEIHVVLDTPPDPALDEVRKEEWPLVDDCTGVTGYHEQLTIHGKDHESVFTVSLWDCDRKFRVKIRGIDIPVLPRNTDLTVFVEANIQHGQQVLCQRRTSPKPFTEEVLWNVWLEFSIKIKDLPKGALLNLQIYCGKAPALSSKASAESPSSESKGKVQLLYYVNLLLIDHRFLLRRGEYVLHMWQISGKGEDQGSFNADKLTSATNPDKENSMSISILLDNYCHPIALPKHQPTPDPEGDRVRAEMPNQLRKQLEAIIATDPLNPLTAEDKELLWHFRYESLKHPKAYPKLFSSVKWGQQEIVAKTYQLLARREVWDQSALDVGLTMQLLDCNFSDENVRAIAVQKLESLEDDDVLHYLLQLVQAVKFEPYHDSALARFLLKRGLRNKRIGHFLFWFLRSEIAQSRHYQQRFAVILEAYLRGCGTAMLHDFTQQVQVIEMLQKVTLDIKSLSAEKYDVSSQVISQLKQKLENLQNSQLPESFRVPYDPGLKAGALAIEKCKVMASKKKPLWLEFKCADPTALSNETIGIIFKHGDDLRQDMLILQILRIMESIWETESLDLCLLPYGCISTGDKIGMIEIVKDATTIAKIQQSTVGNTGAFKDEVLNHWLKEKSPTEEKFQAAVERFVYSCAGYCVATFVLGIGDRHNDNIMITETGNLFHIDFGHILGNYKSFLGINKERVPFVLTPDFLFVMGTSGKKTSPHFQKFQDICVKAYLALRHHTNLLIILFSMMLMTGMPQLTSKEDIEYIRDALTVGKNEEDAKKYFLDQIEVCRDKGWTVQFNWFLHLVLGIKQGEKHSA
T1 sequence (Q8WYR1 whole entry partner, species assumed): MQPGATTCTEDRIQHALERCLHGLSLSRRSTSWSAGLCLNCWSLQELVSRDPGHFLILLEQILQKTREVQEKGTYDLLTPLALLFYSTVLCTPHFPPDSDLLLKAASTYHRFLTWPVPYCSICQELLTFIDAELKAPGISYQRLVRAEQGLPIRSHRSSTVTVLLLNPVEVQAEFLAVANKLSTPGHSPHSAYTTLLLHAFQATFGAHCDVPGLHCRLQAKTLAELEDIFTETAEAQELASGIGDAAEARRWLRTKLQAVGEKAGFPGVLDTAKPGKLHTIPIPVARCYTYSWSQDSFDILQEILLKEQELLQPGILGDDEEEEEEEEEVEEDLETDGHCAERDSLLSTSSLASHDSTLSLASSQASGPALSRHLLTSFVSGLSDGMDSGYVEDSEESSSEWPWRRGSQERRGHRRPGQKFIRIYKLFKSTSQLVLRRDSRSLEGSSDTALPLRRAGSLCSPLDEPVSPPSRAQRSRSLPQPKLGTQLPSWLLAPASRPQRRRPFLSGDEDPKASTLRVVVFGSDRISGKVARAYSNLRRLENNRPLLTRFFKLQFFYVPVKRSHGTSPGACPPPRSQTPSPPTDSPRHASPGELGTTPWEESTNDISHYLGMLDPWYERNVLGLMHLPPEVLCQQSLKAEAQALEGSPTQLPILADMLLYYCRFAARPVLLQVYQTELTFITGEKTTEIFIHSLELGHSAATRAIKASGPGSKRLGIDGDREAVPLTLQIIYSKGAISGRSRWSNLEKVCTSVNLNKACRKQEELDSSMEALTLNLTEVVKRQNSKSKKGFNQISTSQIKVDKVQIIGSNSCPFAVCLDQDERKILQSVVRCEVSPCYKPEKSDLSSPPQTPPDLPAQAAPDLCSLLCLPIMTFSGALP

SMILES	IC50 [1]	% of DMSO control (mean ± S.D.) (CDK2/cyclin A)
Cc1nc(Nc2cc(C(=O)O)n(C)c2)nc2c1ccc(=O)n2C1CCOCC1 [Example 19, 1-Methyl-4-[4-methyl-7-oxo-8-(tetrahydro-pyran-4-yl)-7,8-dihydro-pyrido[2,3-d]pyrimidin-2-ylamino]-1H-pyrrole-2-carboxylic acid]	34 nM	101 ± 6%
Cc1nc(Nc2cc(C(=O)O)n(C)c2)nc2c1ccc(=O)n2C1CCC1 [Example 21, 4-(8-Cyclobutyl-4-methyl-7-oxo-7,8-dihydro-pyrido[2,3-d]pyrimidin-2-ylamino)-1-methyl-1H-pyrrole-2-carboxylic acid]	55 nM	
COC(=O)c1cc(Nc2nc(C)c3ccc(=O)n(CCC4CC4)c3n2)cn1C [Example 8, 4-[8-(2-Cyclopropyl-ethyl)-4-methyl-7-oxo-7,8-dihydro-pyrido[2,3-d]pyrimidin-2-ylamino]-1-methyl-1H-pyrrole-2-carboxylic acid methyl ester]	12 nM	
CCOC(=O)c1cc(Nc2nc(C)c3ccc(=O)n(C4CCCCCC4)c3n2)cn1Cc1ccccc1 [Example 7, 1-Benzyl-4-(8-cycloheptyl-4-methyl-7-oxo-7,8-dihydro-pyrido[2,3-d]pyrimidin-2-ylamino)-1H-pyrrole-2-carboxylic acid ethyl ester]	36 nM	
Cc1nc(Nc2cc(C(=O)O)n(C)c2)nc2c1ccc(=O)n2C1CCCCCC1 [Example 15, 4-(8-Cycloheptyl-4-methyl-7-oxo-7,8-dihydro-pyrido[2,3-d]pyrimidin-2-ylamino)-1-methyl-1H-pyrrole-2-carboxylic acid]	33 nM	
COC(=O)c1cc(Nc2nc(C)c3ccc(=O)n(C4CC4)c3n2)cn1C [Example 3, 4-(8-Cyclopropyl-4-methyl-7-oxo-7,8-dihydro-pyrido[2,3-d]pyrimidin-2-ylamino)-1-methyl-1H-pyrrole-2-carboxylic acid methyl ester]	18 nM	
Cc1nc(Nc2cc(C(=O)O)n(C(C)c3ccccc3)c2)nc2c1ccc(=O)n2C (centres unmarked) [Example 16, 4-(4,8-Dimethyl-7-oxo-7,8-dihydro-pyrido[2,3-d]pyrimidin-2-ylamino)-1-(1-phenyl-ethyl)-1H-pyrrole-2-carboxylic acid]	148 nM	
COC(=O)c1cc(Nc2nc(C)c3ccc(=O)n(C4CCOCC4)c3n2)cn1C [Example 5, 1-Methyl-4-[4-methyl-7-oxo-8-(tetrahydro-pyran-4-yl)-7,8-dihydro-pyrido[2,3-d]pyrimidin-2-ylamino]-1H-pyrrole-2-carboxylic acid methyl ester]	24 nM	

More lines, now with the values ahead:

IC50 [1]	% of DMSO control (mean ± S.D.) (CDK2/cyclin A)	SMILES
5 nM	104 ± 1%	CCn1c(=O)c(Cl)cc2c(C)nc(Nc3cc(C(=O)O)n(C)c3)nc21 [Example 31, 4-(6-Chloro-8-ethyl-4-methyl-7-oxo-7,8-dihydro-pyrido[2,3-d]pyrimidin-2-ylamino)-1-methyl-1H-pyrrole-2-carboxylic acid]
19 nM		COC1CCC(n2c(=O)c(F)cc3c(C)nc(Nc4cc(C(=O)O)n(C)c4)nc32)CC1 (centres unmarked) [Example 27, 4-[6-Fluoro-8-(4-methoxy-cyclohexyl)-4-methyl-7-oxo-7,8-dihydro-pyrido[2,3-d]pyrimidin-2-ylamino]-1-methyl-1H-pyrrole-2-carboxylic acid]
40 nM		Cc1nc(Nc2cc(C(=O)O)n(C)c2)nc2c1cc(F)c(=O)n2C1CCOCC1 [Example 25, 4-[6-Fluoro-4-methyl-7-oxo-8-(tetrahydro-pyran-4-yl)-7,8-dihydro-pyrido[2,3-d]pyrimidin-2-ylamino]-1-methyl-1H-pyrrole-2-carboxylic acid]
6 nM		COC(=O)c1cc(Nc2nc(C)c3cc(Cl)c(=O)n(C4CCCC4)c3n2)cn1C [Example 29, 4-(6-Chloro-8-cyclopentyl-4-methyl-7-oxo-7,8-dihydro-pyrido[2,3-d]pyrimidin-2-ylamino)-1-methyl-1H-pyrrole-2-carboxylic acid methyl ester]
9 nM	85 ± 9%	Cc1nc(Nc2cc(C(=O)O)n(C)c2)nc2c1cc(F)c(=O)n2C1CCCC1 [Example 24, 4-(8-Cyclopentyl-6-fluoro-4-methyl-7-oxo-7,8-dihydro-pyrido[2,3-d]pyrimidin-2-ylamino)-1-methyl-1H-pyrrole-2-carboxylic acid]
2 nM		CCn1c(=O)c(Cl)cc2c(C)nc(Nc3cc(C(=O)OC)n(C)c3)nc21 [Example 30, 4-(6-Chloro-8-ethyl-4-methyl-7-oxo-7,8-dihydro-pyrido[2,3-d]pyrimidin-2-ylamino)-1-methyl-1H-pyrrole-2-carboxylic acid methyl ester]

Reference: patent publication US20080255162A1, “Pyrrolyl Substituted Pyrido[2,3-D]Pyrimidin-7-Ones and Derivatives Thereof as Therapeutic Agents” (WARNER-LAMBERT COMPANY LLC, priority 2004, published 2008)
